Laboratory results: the NIST ThermoML archive (doi:10.1021/acs.jced.6b00181)
Numbers after ± are expanded uncertainties.

Experiment: xn = mol fraction of the nth substance listed
Details: Liquid, Other PVT measurement

Compound `C=CC` [propene] + CCCCCC has a mass density (294.9 K, 1200 kPa, x1 = 0.9003) of 515.1 ± 4.2 kg/m3, a mass density (294.9 K, 1800 kPa, x1 = 0.9003) of 516.8 ± 4.2 kg/m3 and a mass density (294.9 K, 2800 kPa, x1 = 0.9003) of 519 ± 4.2 kg/m3. It also gave a mass density (294.9 K, 3300 kPa, x1 = 0.9003) of 520.8 ± 4.2 kg/m3, a mass density (294.9 K, 4400 kPa, x1 = 0.9003) of 523.3 ± 4.3 kg/m3 and a mass density (294.9 K, 10300 kPa, x1 = 0.9003) of 535.5 ± 4.3 kg/m3. The mass density (294.9 K, 17100 kPa, x1 = 0.9003) was 547.5 ± 4.4 kg/m3, the mass density (294.9 K, 24100 kPa, x1 = 0.9003) was 557.1 ± 4.5 kg/m3 and the mass density (294.9 K, 30800 kPa, x1 = 0.9003) was 565.9 ± 4.6 kg/m3. For the same compound, the mass density (294.9 K, 37800 kPa, x1 = 0.9003) was 573.2 ± 4.6 kg/m3, the mass density (294.9 K, 44200 kPa, x1 = 0.9003) was 580.2 ± 4.7 kg/m3 and the mass density (294.9 K, 51200 kPa, x1 = 0.9003) was 587.4 ± 4.7 kg/m3. For the same compound, the mass density (294.9 K, 55000 kPa, x1 = 0.9003) was 591.5 ± 4.8 kg/m3, the mass density (294.9 K, 58300 kPa, x1 = 0.9003) was 593.8 ± 4.8 kg/m3 and the mass density (294.9 K, 67300 kPa, x1 = 0.9003) was 601.9 ± 8.5 kg/m3. The mass density (295 K, 1400 kPa, x1 = 0.606) was 568 ± 4.6 kg/m3, the mass density (295 K, 5200 kPa, x1 = 0.606) was 574.6 ± 4.6 kg/m3 and the mass density (295 K, 6800 kPa, x1 = 0.606) was 577 ± 4.7 kg/m3. For the same compound, the mass density (295 K, 10300 kPa, x1 = 0.606) was 582.2 ± 4.7 kg/m3, the mass density (295 K, 17200 kPa, x1 = 0.606) was 592 ± 4.8 kg/m3 and the mass density (295 K, 23900 kPa, x1 = 0.606) was 600 ± 4.8 kg/m3. The mass density (295 K, 30600 kPa, x1 = 0.606) was 606.9 ± 4.9 kg/m3, the mass density (295 K, 37500 kPa, x1 = 0.606) was 613.5 ± 4.9 kg/m3 and the mass density (295 K, 44500 kPa, x1 = 0.606) was 619.4 ± 5 kg/m3. It also gave a mass density (295 K, 51100 kPa, x1 = 0.606) of 624.9 ± 5 kg/m3, a mass density (295 K, 57900 kPa, x1 = 0.606) of 630 ± 5.1 kg/m3 and a mass density (295 K, 63100 kPa, x1 = 0.606) of 634.3 ± 5.1 kg/m3. The mass density (295 K, 66800 kPa, x1 = 0.606) was 636.7 ± 5.1 kg/m3, the mass density (295.3 K, 500 kPa, x1 = 0.4466) was 592.6 ± 4.8 kg/m3 and the mass density (295.3 K, 700 kPa, x1 = 0.4466) was 594.3 ± 4.8 kg/m3. For the same compound, the mass density (295.3 K, 1400 kPa, x1 = 0.4466) was 595.1 ± 4.8 kg/m3, the mass density (295.3 K, 2100 kPa, x1 = 0.4466) was 596.8 ± 4.8 kg/m3 and the mass density (295.3 K, 2800 kPa, x1 = 0.4466) was 597.6 ± 4.8 kg/m3. For the same compound, the mass density (295.3 K, 3700 kPa, x1 = 0.4466) was 598.9 ± 4.8 kg/m3, the mass density (295.3 K, 4800 kPa, x1 = 0.4466) was 600.6 ± 4.8 kg/m3 and the mass density (295.3 K, 6800 kPa, x1 = 0.4466) was 603.6 ± 4.9 kg/m3. The mass density (295.3 K, 10200 kPa, x1 = 0.4466) was 607.9 ± 4.9 kg/m3, the mass density (295.3 K, 16900 kPa, x1 = 0.4466) was 615.3 ± 5 kg/m3 and the mass density (295.3 K, 24100 kPa, x1 = 0.4466) was 622.5 ± 5 kg/m3. The mass density (295.3 K, 30900 kPa, x1 = 0.4466) was 629 ± 5.1 kg/m3, the mass density (295.3 K, 38100 kPa, x1 = 0.4466) was 634.6 ± 5.1 kg/m3 and the mass density (295.3 K, 44500 kPa, x1 = 0.4466) was 640.3 ± 5.1 kg/m3. For the same compound, the mass density (295.3 K, 51600 kPa, x1 = 0.4466) was 646.2 ± 5.2 kg/m3, the mass density (295.3 K, 58300 kPa, x1 = 0.4466) was 651.1 ± 5.2 kg/m3 and the mass density (295.3 K, 63000 kPa, x1 = 0.4466) was 654.6 ± 5.3 kg/m3. It also gave a mass density (295.3 K, 66500 kPa, x1 = 0.4466) of 657.1 ± 5.3 kg/m3, a mass density (295.6 K, 700 kPa, x1 = 0.1414) of 638.3 ± 5.2 kg/m3 and a mass density (295.6 K, 1300 kPa, x1 = 0.1414) of 639.2 ± 5.2 kg/m3. For the same compound, the mass density (295.6 K, 1700 kPa, x1 = 0.8985) was 516.2 ± 4.5 kg/m3, the mass density (295.6 K, 1900 kPa, x1 = 0.8985) was 518.5 ± 4.2 kg/m3 and the mass density (295.6 K, 2600 kPa, x1 = 0.8985) was 518.5 ± 4.2 kg/m3. For the same compound, the mass density (295.6 K, 3500 kPa, x1 = 0.1414) was 642 ± 5.2 kg/m3, the mass density (295.6 K, 3600 kPa, x1 = 0.8985) was 522.1 ± 4.3 kg/m3 and the mass density (295.6 K, 4900 kPa, x1 = 0.8985) was 524.5 ± 4.3 kg/m3. The mass density (295.6 K, 7000 kPa, x1 = 0.8985) was 528.5 ± 4.3 kg/m3, the mass density (295.6 K, 8200 kPa, x1 = 0.1414) was 646.8 ± 5.2 kg/m3 and the mass density (295.6 K, 8500 kPa, x1 = 0.8985) was 532.3 ± 4.3 kg/m3. For the same compound, the mass density (295.6 K, 10100 kPa, x1 = 0.8985) was 535.7 ± 4.3 kg/m3, the mass density (295.6 K, 10500 kPa, x1 = 0.8985) was 535.7 ± 4.3 kg/m3 and the mass density (295.6 K, 10700 kPa, x1 = 0.1414) was 649.7 ± 5.2 kg/m3. The mass density (295.6 K, 13800 kPa, x1 = 0.8985) was 541.2 ± 4.4 kg/m3, the mass density (295.6 K, 14900 kPa, x1 = 0.1414) was 653.6 ± 5.3 kg/m3 and the mass density (295.6 K, 16700 kPa, x1 = 0.8985) was 546.4 ± 4.4 kg/m3. For the same compound, the mass density (295.6 K, 17200 kPa, x1 = 0.8985) was 546.4 ± 4.4 kg/m3, the mass density (295.6 K, 20700 kPa, x1 = 0.1414) was 659.5 ± 5.3 kg/m3 and the mass density (295.6 K, 23200 kPa, x1 = 0.8985) was 555.2 ± 4.5 kg/m3. For the same compound, the mass density (295.6 K, 24000 kPa, x1 = 0.1414) was 662.5 ± 5.3 kg/m3, the mass density (295.6 K, 27200 kPa, x1 = 0.1414) was 665.6 ± 5.4 kg/m3 and the mass density (295.6 K, 29100 kPa, x1 = 0.8985) was 562.8 ± 4.5 kg/m3. For the same compound, the mass density (295.6 K, 30800 kPa, x1 = 0.1414) was 668.6 ± 5.4 kg/m3, the mass density (295.6 K, 34400 kPa, x1 = 0.8985) was 568.4 ± 4.6 kg/m3 and the mass density (295.6 K, 37100 kPa, x1 = 0.1414) was 673.8 ± 5.4 kg/m3. For the same compound, the mass density (295.6 K, 38100 kPa, x1 = 0.8985) was 573.9 ± 4.6 kg/m3, the mass density (295.6 K, 41000 kPa, x1 = 0.8985) was 576.4 ± 4.6 kg/m3 and the mass density (295.6 K, 42700 kPa, x1 = 0.1414) was 678.5 ± 5.5 kg/m3. For the same compound, the mass density (295.6 K, 44800 kPa, x1 = 0.8985) was 581.2 ± 4.7 kg/m3, the mass density (295.6 K, 47800 kPa, x1 = 0.1414) was 682.2 ± 5.5 kg/m3 and the mass density (295.6 K, 48000 kPa, x1 = 0.1414) was 682.8 ± 6.7 kg/m3. For the same compound, the mass density (295.6 K, 48200 kPa, x1 = 0.1414) was 682.8 ± 5.5 kg/m3, the mass density (295.6 K, 48200 kPa, x1 = 0.8985) was 584.2 ± 4.7 kg/m3 and the mass density (295.6 K, 48300 kPa, x1 = 0.1414) was 682.8 ± 5.5 kg/m3. The mass density (295.6 K, 51600 kPa, x1 = 0.8985) was 588 ± 4.7 kg/m3, the mass density (295.6 K, 52000 kPa, x1 = 0.1414) was 685.5 ± 5.5 kg/m3 and the mass density (295.6 K, 54900 kPa, x1 = 0.8985) was 590.4 ± 4.7 kg/m3.
